BindingDB's records for doi:10.1016/S0960-894X(01)81219-1 (1993)

Assay: The inhibitory constant was evaluated against Endothelin A receptor in rabbit renal artery tissue

IC50: 0.13 µM
Structure (SMILES): CC[C@H](C)[C@H](NC(=O)[C@H](CC(=O)O)NC(=O)[C@H](CCCN)NC(=O)[C@@H](Cc1c[nH]c2ccccc12)NC(C)=O)C(=O)N[C@H](C(=O)N[C@@H](Cc1c[nH]c2ccccc12)C(=O)O)[C@@H](C)CC [(S)-3-{(S)-2-[(R)-2-Acetylamino-3-(1H-indol-3-yl)-propionylamino]-5-amino-pentanoylamino}-N-((1S,2R)-1-{(1S,2R)-1-[(S)-1-carboxy-2-(1H-indol-3-yl)-ethylcarbamoyl]-2-methyl-butylcarbamoyl}-2-methyl-butyl)-succinamic acid]
